Experimental data: patent US10842758B1, “Transdermal penetrant formulations containing cannabidiol” (AMPERSAND BIOPHARMACEUTICALS, INC., priority 2019, dated 2020)

Assay: Plasma pharmacokinetic profile of cannabidiol after a single topical dose (In-life Study 1901002-01, LC-MS/MS)
Format: in vivo, CD-1 mice
Settings: CD-1, topical or ocular, single topical dose 0.1 mL, mouse plasma
Procedure: The objective of this study was to determine the plasma pharmacokinetic (PK) profile of test article cannabidiol (CBD) following the administration of a single topical dose to CD-1 mice. The work was conducted at Alliance Pharma with a title of In-life Study 1901002-01. Although the in-life study was not intended to be conducted in compliance with Good Laboratory Practice regulations, the study was conducted in accordance with Alliance Pharma's IACUC (Institutional Animal Care and Use Committee) Protocol No. 2016-02_V4 and Alliance Pharma's standard operating procedures (SOPs). In addition, the pharmacokinetic analyses of mouse plasma samples were conducted in accordance with Alliance Pharma SOPs.
A total of 72 mouse (CD-1) plasma samples were transferred from Alliance Pharma's in-life facility located in Malvern, Pa. to the Bioanalytical department for pharmacokinetic analysis. The concentration of CBD in these 72 plasma samples was measured using high-performance liquid chromatography (HPLC) with tandem mass spectrometry (MS/MS) detection.
Test Article: The dose gels for test article CBD were provided by Ampersand Biopharma dba Dyve Biosciences (Thousand Oakes, Calif.), prior to the start of this study and stored at room temperature.
In-life Study Design: In-life Study 1901002-01 was performed at the in-life testing facility at Alliance Pharma. Four (4) groups of 21 CD-1 mice each (84 total) were administered a single topical dose of CBD. Mice in Group 1 were administered Formulation A at a strength of 2.5% CBD. Mice in Group 2 were administered Formulation B at the same strength of 2.5% CBD. Mice in Group 3 were administered Formulation C at a strength of 5% CBD, and mice in Group 4 were administered Formulation C at a strength of 2.5% CBD. The treatment scheme is summarized below.
Animals in each group received topical administration of either 2.5% o 5% CBD using a 1 ml syringe to draw up exactly 100 μl. Compound was applied in the shaved area only. Each group received a different formulation of the compound.
Sample Collection, Processing, and Shipment: Blood samples were collected at the in-life facility at the following time points: 0.25, 0.5, 1, 2, 4, and 8 hours post-dose from 72 mice in Groups 1 through 4 (18 from each treatment group). Target volume was less than or equal to 0.2 ml. The blood was collected via trunk puncture into tubes using K2 EDTA as an anticoagulant. The collected blood samples were kept on wet ice before being centrifuged. Blood samples were centrifuged as soon as possible after blood collection at approximately 10,000 rpm for about 10 minutes to separate the plasma. Approximately 0.2 mL of each plasma sample was transferred into labeled Eppendorf tubes. Each tube was stored in a freezer set to −20° C. or lower. No blood was collected from 12 (3 from each treatment group) of the 84 mice enrolled in the in-life study; thus, the total number of plasma samples that were transferred to the Alliance Pharma Bioanalytical department for bioanalysis was 72.
Assay Procedures: For analysis of CBD, a 25-μL aliquot of each study sample was mixed with 25 μL of acetonitrile/water (50:50, v/v). Samples were then extracted by protein precipitation using acetonitrile containing the internal standard, tolbutamide (25 ng/mL). A portion of the supernatant was diluted in deionized water and used for the analysis of CBD.
Preparation of Standards and Quality Controls: Calibration standards of CBD mouse plasma samples were prepared in acetonitrile/water (50:50, v/v) at concentrations of 1, 2, 20, 200, 500, 1000, 1800, and 2000 ng/mL. The low quality control (LQC), medium quality control (MQC), and high quality control (HQC) were prepared in blank mouse plasma at concentrations of 3, 150, and 1500 ng/mL, respectively. A dilution quality control (DQC) was prepared at a concentration of 10,000 ng/mL and used in Batch 1.
Sample Analyses: Study samples were analyzed using a bioanalytical method qualified by Alliance Pharma. […]

[1] = Group 1: AEM.CBD.006 Formulation A 2.5% CBD, mean dose 78.69 mg/kg
[2] = Group 2: AEM.CBD.007 Formulation B 2.5% CBD, mean dose 76.61 mg/kg
[3] = Group 3: KBM.CBD.010 Formulation C 5% CBD, mean dose 155.24 mg/kg
[4] = Group 4: KBM.CBD.011 Formulation C 2.5% CBD, mean dose 75.76 mg/kg

Question: Which AUC(0-inf) [1] does the source give for `C=C(C)[C@@H]1CCC(C)=C[C@H]1c1c(O)cc(CCCCC)cc1O` [Cannabidiol] here?
Answer: 1860 ng·h/mL

Question: And the AUC(0-t) [1]?
Answer: 1760 ng·h/mL

Question: What about the Cmax [1] of the same molecule?
Answer: 427 ng/mL

Question: And the Tmax [1]?
Answer: 2 h

Question: What about the half-life [1] of the same molecule?
Answer: 1.78 h

Question: What about the AUC(0-inf) [2] of the same molecule?
Answer: 1650 ng·h/mL

Question: And the AUC(0-t) [2]?
Answer: 1560 ng·h/mL

Question: And the Cmax [2]?
Answer: 360 ng/mL

Question: And the Tmax [2]?
Answer: 2 h

Question: And the half-life [2]?
Answer: 1.7 h

Question: What about the AUC(0-inf) [3] of the same molecule?
Answer: 3530 ng·h/mL

Question: And the AUC(0-t) [3]?
Answer: 3070 ng·h/mL

Question: What about the Cmax [3] of the same molecule?
Answer: 602 ng/mL

Question: And the Tmax [3]?
Answer: 4 h

Question: And the AUC(0-inf) [4]?
Answer: 1510 ng·h/mL

Question: And the AUC(0-t) [4]?
Answer: 1410 ng·h/mL

Question: What about the Cmax [4] of the same molecule?
Answer: 332 ng/mL

Question: And the Tmax [4]?
Answer: 1 h

Question: What about the half-life [4] of the same molecule?
Answer: 1.92 h
